Values joined by “and” are separate entries in the source; they are usually repeats but may differ in a detail not shown here. Equal values may be shown once. “Also recorded” adds a separate entry of the source. Read-outs that look alike come from different tables or passages of the source. Marks after values point to notes of the source that are not given here.
How the values were obtained:
[1] = tested on: Human epidermal keratinocytes cells (HPEKs), 3D micro-epidermis; test: 3D micro-epidermis model (EpiScreen): epidermis size, toxicity, dose response, classification; format: cell-based; details: for effect on desmoglein-1, involucrin and filaggrin expression (dose dependence): 3, 10, 30 nM; for Dose in response: variation of protein expression at 3, 10, 30 nM (EGFRi) or 3, 10, 30, 100 nM (VEGFRi); for Dose in response / Dose/response: markers in brackets; for Dose/response: supplementary table, per run (1st or 2nd Run); for impact on all measured parameters / epidermis development: micro-epidermis model;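 for all read-outs here: keratinocytes on micropatterned discs in high-calcium medium, drug exposure for three days, then fixation and confocal high-content imaging of actin, nuclei and a marker, vehicle DMSO-matched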
[2] = tested on: desmoglein-1 (DSG1); test: 3D micro-epidermis model (EpiScreen): desmoglein-1 immunostaining; format: cell-based, human; details: for DSG 3 nM / DSG 30 nM / activation at 0.01 µM / activation at 0.1 µM: supplementary data; for activation at 0.01 µM / activation at 0.1 µM: Homo sapiens, 72 h; for activation at 0.01 µM: 10 nM, read-out: DSG 10 nM; for activation at 0.1 µM: 100 nM, Tox = toxic, read-out: DSG 100 nM; for DSG-1 expression: Table 1 summary
Experimental: (§1) To assess the effects of such therapy molecules on the epidermis, keratinocytes were grown in the presence of kinase inhibitors during 3 days with high calcium concentration to induce keratinocyte differentiation and generate a 3D-stratified differentiated epidermis. Drug impact on the epidermis development was assessed via different keratinocyte markers including: • Ki-67, an universally expressed protein among proliferating cells and absent in the quiescent cells; • Filaggrin, a filament-associated protein that binds to keratin fibers and is a marker of terminal differentiation; • Desmoglein-1, a component of desmosomes and differentiation marker expressed in all epidermal layer above the basal layer; and • Involucrin, an early differentiation marker expressed in the spinous and granular layers and a protein precursor of the epidermal cornified envelope.
(§2) Human epidermal keratinocytes cells (HPEKs) from a juvenile donor (CellnTec, Switzerland) are cultured in flasks in proliferation medium. Keratinocytes are seeded at passage 6 into EpiScreen™ (Abzena, Cambridge, UK) plates containing collagen 1 coated disc micropatterns (CYTOO, Grenoble, France). Four hours later, unattached cells are washed off and a high calcium medium is added to induce keratinocytes differentiation. The day after, keratinocytes are treated with screening compounds, and Trichostatin A is added at 0.3 μM as an internal positive control. After three days of treatment, micro-epidermises are fixed with a formalin solution 10% for 30 minutes, then permeabilized with 0.1% Triton. Several immunostainings are performed: actin (Acti-Stain 555, PHDH1, Cytoskeleton), nuclei (Hoechst, H3570, Invitrogen), and one biomarker of interest per well either anti-involucrin (HPA055211, Sigma), anti-filaggrin (HPA030189, Sigma) or anti-desmoglein-1 (HPA022128, Sigma). Antibodies are added overnight at 4° C. before staining with secondary antibody, anti-rabbit 488 (711-545-152, Jackson) for 2 hours at room temperature.
(§3) Images of each well are acquired with the Operetta HCS platform (Perkin Elmer, Waltham, MA, USA) using a ×10 objective in confocal mode in eight z-planes from 2 μm to 44 μm in steps of 6 μm in each of the 3 channels: actin, nuclei, and one biomarker of interest. The first step of the image analysis consists in detecting micro-epidermis structures on the first z-plane by segmenting the actin staining. Micro-epidermis structures are validated based on several area and roundness min and max criteria. Then, the area of each biomarker staining is measured inside the valid micro-epidermis masks through each z-plane. For all homogeneous biomarker staining, their intensity through the different planes is measured.
(§4) The actin network of each micro-epidermis is analyzed in each z-plane in order to determine the average 3D structure edges. The biomarker intensity is measured in each z-plane for each structure, and then averaged with the other results generated in the same well. Based on the data generated in the two previous steps, an average 3D reconstruction image is generated. It consists of a meshwork that delimits the structure edges, and a color scaled volume that corresponds to the biomarkers distribution and expression.
The effect of 8 oncology molecules, selected from first generation EGFRi and pan-kinase inhibitors which mostly target VEGFR and second and third generation therapies targeting main mutations relating to first generation treatment resistance, were assessed in vitro using a 3D micro-epidermis model. The drug incubation concentrations (3, 10, 30, 100 nM) were selected to reflect the clinically relevant (unbound) drug exposures (Table 2). The drug impact was assessed by analysis of tissue size and keratinocyte proliferation using Ki-67 staining and keratinocyte differentiation using filaggrin, desmoglein-1 and involucrin staining. […]

[3] = cited from earlier work; for Cmax: maximal plasma concentration after a single daily-recommended dose, human; for Unbound fraction: unbound to plasma protein
[4] = most frequent cutaneous adverse reaction reported by the FDA Adverse Event Reporting System; cited from earlier work
[5] = tested on: filaggrin (FLG); test: 3D micro-epidermis model (EpiScreen): filaggrin immunostaining; format: cell-based, human; details: for activation at 0.01 µM / activation at 0.1 µM / activation at 1 µM: Homo sapiens, 72 h; for FLG expression: Table 1 summary;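 for all read-outs here: human primary epidermal keratinocytes differentiated in high calcium into 3D micro-epidermises, compound-treated for three days, imaged by confocal high-content microscopy, filaggrin staining intensity quantified within actin-segmented structures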
[6] = tested on: involucrin (IVL); test: 3D micro-epidermis model (EpiScreen): involucrin immunostaining; format: cell-based, human; details: for activation at 0.1 µM / activation at 1 µM: Homo sapiens, 72 h; for activation at 0.1 µM: 100 nM; for IVL expression: Table 1 summary
Experimental: as §1, §2, §3, §4
The effect of 8 oncology molecules, selected from first generation EGFRi and pan-kinase inhibitors which mostly target VEGFR and second and third generation therapies targeting main mutations relating to first generation treatment resistance, were assessed in vitro using a 3D micro-epidermis model. […] The drug impact was assessed by analysis of tissue size and keratinocyte proliferation using Ki-67 staining and keratinocyte differentiation using filaggrin, desmoglein-1 and involucrin staining.
Size of the epidermis and the expression of the protein junction desmoglein-1 (DSG1), involucrin (IVL) and filaggrin (FLG) was assessed by immunostaining and compared to untreated control. […]

[7] = tested on: desmoglein-1 (DSG1); test: 3D micro-epidermis model (EpiScreen): desmoglein-1 immunostaining; format: cell-based, human; details: supplementary data, Tox = toxic; for activation at 1 µM: Homo sapiens, 72 h, read-out: DSG 1 μM
[8] = Table 1 summary of drug effect on epidermis
[9] = Table 1 summary, pro-differentiation / pro-proliferation
[10] = Table 3, 30 nM (EGFRi) or 100 nM (VEGFRi), 3 days, vs untreated control, superscript = significance footnote
[11] = Table 3, pro-proliferation or pro-differentiation
[12] = read-out: FLG 10 nM, 10 nM, supplementary data, two runs
[13] = read-out: FLG 100 nM, 100 nM, supplementary data, two runs, Tox = toxic
[14] = supplementary data, two runs, Tox = toxic
[15] = 100 nM, supplementary data, two runs, Tox = toxic, read-out: FLG 100 nM
[16] = 1 μM, supplementary data, two runs, Tox = toxic

Row | Structure (SMILES) | effect on desmoglein-1, involucrin and filaggrin expression (dose dependence) [1] | Epidermis size [1, 8] | Classification [1, 9] | Epidermis size [1, 10] | Classification [1, 11] | Dose in response ([1]; Table 3) | Dose/response [1] | DSG 3 nM [2] | DSG 30 nM [2] | activation at 0.01 µM [2] | activation at 0.1 µM [2] | DSG-1 expression [2] | activation at 0.1 µM [6, 14] | DSG 10 μM [7] | activation at 1 µM ([7]; 1 μM) | FLG 10 μM [5, 14] | activation at 0.1 µM [5, 15] | activation at 1 µM [5, 16] | IVL 10 μM [6, 14] | activation at 1 µM [6, 16] | further results
1 | C#Cc1cccc(Nc2ncnc3cc(OCCOC)c(OCCOC)cc23)c1 [Erlotinib] | did not affect | Decreased | Pro-differentiation | Decreased^1 | Pro- | No | No | −7% | 1% | -2% | 36% | Increased | 35% | – | – | – | – | – | – | – | Toxicity at 1 μM [1]: Yes; Cmax [3]: 1600 nM; Unbound fraction [3]: 5%; Major Skin Effect [4]: Papulo-pustular; FLG 3 nM ([5]; supplementary data): 6%; FLG 30 nM ([5]; supplementary data): 10%; activation at 0.01 µM [5, 12]: 0%; activation at 0.1 µM [5, 13]: 34%; FLG expression [5]: Increased; IVL 3 nM ([6]; supplementary data): 13%; IVL 10 nM ([6]; supplementary data, two runs): 16%; IVL 30 nM ([6]; supplementary data): 22%; IVL expression [6]: Increased
2 | CCCS(=O)(=O)Nc1ccc(F)c(C(=O)c2c[nH]c3ncc(-c4ccc(Cl)cc4)cc23)c1F [Vemurafenib] | – | – | – | – | – | – | – | – | – | – | -26% | – | -11% | −58% | -33% | 126% | 23% | 65% | −40% | -24% | –
3 | Cc1ccnc2c1NC(=O)c1cccnc1N2C1CC1 [Nevirapine] | – | – | – | – | – | – | Yes (DSG) | – | – | – | -8% | – | 17% | −28% | -15% | 2% | 7% | 8% | 20% | 15% | –
4 | CC(=O)Nc1ccc(O)cc1 [Acetaminophen] | – | – | – | Unchanged^4 | Unchanged | No | No | – | – | – | – | – | – | – | – | – | – | – | 10% and 8% | – | impact on all measured parameters / epidermis development [1]: no effect
5 | CNC(=O)c1ccc(N2C(=S)N(c3ccc(C#N)c(C(F)(F)F)c3)C(=O)C2(C)C)cc1F [Enzalutamide] | – | – | – | – | – | – | No | – | – | – | -6% | – | 9.3% | −12% | -6% | −1% | 2% | 9.8% | 2% | 6.2% | –
6 | COc1cc2ncnc(Nc3ccc(F)c(Cl)c3)c2cc1OCCCN1CCOCC1 [Gefitinib] | increased in a dose-dependent manner only the expression of desmoglein-1 | Unchanged | Pro-differentiation | Unchanged^4 | Pro- | Yes | Yes (DSG) | −8% | 15% | 0% | 41% | Increased | 29% | – | – | – | – | – | – | – | Toxicity at 1 μM [1]: Yes; Cmax [3]: 356 nM; Unbound fraction [3]: 3.4%**; FLG 3 nM ([5]; supplementary data): 10%; FLG 30 nM ([5]; supplementary data): 5%; activation at 0.01 µM [5, 12]: 3%; activation at 0.1 µM [5, 13]: 28%; FLG expression [5]: Increased; IVL 3 nM ([6]; supplementary data): 23%; IVL 10 nM ([6]; supplementary data, two runs): 8%; IVL 30 nM ([6]; supplementary data): 23%; IVL expression [6]: Increased
7 | C=CC(=O)Nc1cc(Nc2nccc(-c3cn(C)c4ccccc34)n2)c(OC)cc1N(C)CCN(C)C [Osimertinib] | did not affect | Unchanged | Unchanged | Unchanged^4 | Unchanged | No | No | −3% | 7% | -7% | 18% | Unchanged | 20% | Tox | – | Tox | 16% | – | Tox | – | impact on all measured parameters / epidermis development [1]: did not show any impact; also recorded: no impact; Cmax [3]: 627 nM; Unbound concentration ([3]; unbound plasma concentration, identified or calculated from Cmax and unbound fraction): 8.2764 nM; Unbound fraction [3]: 1.32%*; DSG 1 μM ([7]; 1 μM): Tox; FLG 3 nM ([5]; supplementary data): −12%; FLG 30 nM ([5]; supplementary data): 2%; FLG 1 μM [5, 16]: Tox; activation at 0.01 µM ([5]; 10 nM, supplementary data, two runs, read-out: FLG 10 nM): -6%; FLG expression [5]: Unchanged; IVL 3 nM ([6]; supplementary data): 6%; IVL 10 nM ([6]; supplementary data, two runs): 8%; IVL 30 nM ([6]; supplementary data): 7%; IVL 1 μM [6, 16]: Tox; IVL expression [6]: Unchanged
8 | COc1cc2c(Nc3ccc(Br)cc3F)ncnc2cc1OCC1CCN(C)CC1 [Vandetanib] | – | – | – | – | – | – | – | – | – | – | 5% | – | 25% | – | 30% | – | – | – | – | 51% | –
9 | CC#CC(=O)N1CCC[C@H]1c1nc(-c2ccc(C(=O)Nc3ccccn3)cc2)c2c(N)nccn12 [Acalabrutinib] | – | – | – | – | – | – | – | – | – | – | -26% | – | 11% | −7.50% | -15% | 33% | 6% | 15% | 25% | 15% | –
